Assay: The TLC plates are then dried, exposed to a phosphorimager screen (Storm, Amersham), and quantitated. For each compound, kinase activity is measured at 10-12 inhibitor concentrations representing two-fold dilutions from the highest concentration tested (typically, 200 μM).

Row | Compound | IC50
1 | C[C@H](NC(=O)c1c(N)nn2cccnc12)c1cc2cccc(OCC(F)(F)F)c2c(=O)n1-c1ccccc1 | in the range around 5.5 µM
2 | Cc1cccc2c(=O)n(-c3ccccc3)c([C@H](C)NC(=O)c3c(N)nn4cccnc34)nc12 | in the range around 5.5 µM
3 | CC(=O)Cc1cccc2nc([C@H](C)NC(=O)c3c(N)nn4cccnc34)n(-c3ccccc3)c(=O)c12 | in the range around 5.5 µM
4 | CC(C)C(=O)Cc1cccc2cc([C@H](C)NC(=O)c3c(N)nn4cccnc34)n(-c3ccccc3)c(=O)c12 | in the range around 5.5 µM
5 | C[C@H](NC(=O)c1nccnc1N)c1oc2ccc(F)cc2c(=O)c1-c1ccccc1 | in the range around 5.5 µM
6 | C[C@H](NC(=O)c1c(N)nn2cccnc12)c1cc2cccc(Cl)c2c(=O)n1-c1ccc(O)cc1 | in the range around 5.5 µM
7 | C[C@H](NC(=O)c1c(N)nn2cccnc12)c1nc2cccc(Cl)c2c(=O)n1-c1ccc(F)c(F)c1 | in the range around 5.5 µM
8 | C[C@H](NC(=O)c1c(N)nn2cccnc12)c1nc2cccc(N3CCOCC3)c2c(=O)n1-c1ccccc1 | in the range around 5.5 µM
9 | C[C@H](NC(=O)c1nccnc1N)c1cc2cccc(C(F)(F)F)c2c(=O)n1-c1ccccc1 | in the range around 5.5 µM
10 | C[C@H](NC(=O)c1c(N)nn2cccnc12)c1cc2cccc(OCc3cnn(C)c3)c2c(=O)n1-c1ccccc1 | in the range around 5.5 µM
11 | C[C@H](NC(=O)c1nc(C2CC2)cnc1N)c1cc2cccc(Cl)c2c(=O)n1-c1ccccc1 | in the range around 5.5 µM
12 | C[C@H](NC(=O)c1c(N)nn2cccnc12)c1nc2ccccc2c(=O)n1-c1ccccc1 | in the range around 5.5 µM
13 | C[C@H](NC(=O)c1c(N)nn2cccnc12)c1cc2cccc(-c3cnn(CC(F)(F)F)c3)c2c(=O)n1-c1ccccc1 | in the range around 5.5 µM
14 | COc1ccccc1-n1c([C@H](C)NC(=O)c2c(N)nn3cccnc23)cc2cccc(Cl)c2c1=O | in the range around 5.5 µM
15 | C[C@H](NC(=O)c1c(N)ncn2ccnc12)c1cc2cccc(Cl)c2c(=O)n1-c1ccccc1 | in the range around 5.5 µM
16 | C[C@H](NC(=O)c1c(N)nn2cccnc12)c1nc2ccc(Cl)cc2c(=O)n1-c1ccccc1 | in the range around 5.5 µM
17 | C[C@H](NC(=O)c1c(N)nn2cccnc12)c1cc2cccc(Cl)c2c(=O)n1-c1ccccc1O | in the range around 5.5 µM
18 | C[C@H](NC(=O)c1c(N)nn2cccnc12)c1cc2cccc(-c3cnn(CC#N)c3)c2c(=O)n1-c1ccccc1 | in the range around 5.5 µM
19 | C[C@H](NC(=O)c1c(N)nn2cccnc12)c1oc2ccc(F)cc2c(=O)c1-c1ccccc1 | in the range around 5.5 µM
20 | C[C@H](NC(=O)c1nccnc1N)c1nc2cccc(Cl)c2c(=O)n1-c1ccc(F)cc1 | in the range around 5.5 µM
21 | C[C@H](NC(=O)c1c(N)nn2cccnc12)c1cc2cccc(CC(=O)C(C)(C)C)c2c(=O)n1-c1ccccc1 | in the range around 5.5 µM
22 | CCn1cc(-c2cccc3cc([C@H](C)NC(=O)c4c(N)nn5cccnc45)n(-c4ccccc4)c(=O)c23)cn1 | in the range around 5.5 µM
23 | C[C@H](NC(=O)c1c(N)nn2cccnc12)c1nc2c(Cl)cccc2c(=O)n1-c1ccccc1 | in the range around 5.5 µM
24 | Cc1ccnc2c(C(=O)N[C@@H](C)c3cc4cccc(Cl)c4c(=O)n3-c3ccccc3)c(N)nn12 | in the range around 5.5 µM
25 | C[C@H](NC(=O)c1c(N)nn2cccnc12)c1nc2cccc(Cl)c2c(=O)n1-c1ccc(F)cc1 | in the range around 5.5 µM

Continued, values first:

Row | IC50 | Compound
26 | in the range around 5.5 µM | C[C@H](NC(=O)c1c(N)nn2cccnc12)c1cc2cccc(Cl)c2c(=O)n1-c1ccccc1NS(C)(=O)=O
27 | in the range around 5.5 µM | C[C@H](NC(=O)c1c(N)nn2cccnc12)c1cc2cccc(Cl)c2c(=O)n1-c1ccc(NS(C)(=O)=O)cc1
28 | in the range around 5.5 µM | C[C@H](NC(=O)c1c(N)nn2cccnc12)c1cc2cccc(Cl)c2c(=O)n1CCc1nnn(C)n1
29 | in the range around 5.5 µM | C[C@H](NC(=O)c1c(N)nn2cccnc12)c1cc2cccc(Cl)c2c(=O)n1CCc1ncn[nH]1
30 | in the range around 5.5 µM | C[C@H](NC(=O)c1c(N)nn2cccnc12)c1cc2cccc(Cl)c2c(=O)n1CCc1nnn[nH]1
31 | in the range around 5.5 µM | C[C@H](NC(=O)c1c(N)nn2cccnc12)c1cc2cccc(Cl)c2c(=O)n1CCS(N)(=O)=O
32 | in the range around 5.5 µM | C[C@H](NC(=O)c1c(N)nn2cccnc12)c1cc2cccc(Cl)c2c(=O)n1CCc1ccccc1
33 | in the range around 5.5 µM | C[C@H](NC(=O)c1c(N)nn2cccnc12)c1cc2cccc(Cl)c2c(=O)n1C1CC(NS(C)(=O)=O)C1 (stereo partly specified)
34 | in the range around 5.5 µM | C[C@H](NC(=O)c1c(N)nn2cccnc12)c1cc2cccc(Cl)c2c(=O)n1CCc1noc(C(C)(C)C)n1
35 | in the range around 5.5 µM | C[C@H](NC(=O)c1c(N)nn2cccnc12)c1cc2cccc(Cl)c2c(=O)n1-c1cccnc1
36 | in the range around 5.5 µM | C[C@H](NC(=O)c1c(N)nn2cccnc12)c1cc2cccc(Cl)c2c(=O)n1-c1cccc(NS(C)(=O)=O)c1
37 | in the range around 5.5 µM | Cc1cccc(-n2c([C@H](C)NC(=O)c3c(N)nn4cccnc34)cc3cccc(Cl)c3c2=O)c1
38 | in the range around 5.5 µM | C[C@H](NC(=O)c1c(N)nn2cccnc12)c1cc2cccc(Cl)c2c(=O)n1CCCS(C)(=O)=O
39 | in the range around 5.5 µM | C#CCCn1c([C@H](C)NC(=O)c2c(N)nn3cccnc23)cc2cccc(Cl)c2c1=O
40 | in the range around 5.5 µM | C[C@H](NC(=O)c1c(N)nn2cccnc12)c1cc2cccc(Cl)c2c(=O)n1CCNS(C)(=O)=O
41 | in the range around 5.5 µM | C[C@H](NC(=O)c1c(N)nn2cccnc12)c1cc2cccc(Cl)c2c(=O)n1CCc1c[nH]cn1

Row | IC50 | Compound
42 | in the range around 5.5 µM | CCS(=O)(=O)NCCn1c([C@H](C)NC(=O)c2c(N)nn3cccnc23)cc2cccc(Cl)c2c1=O
43 | in the range around 5.5 µM | Cc1noc(CCn2c([C@H](C)NC(=O)c3c(N)nn4cccnc34)cc3cccc(Cl)c3c2=O)n1
44 | in the range around 5.5 µM | C[C@H](NC(=O)c1c(N)nn2cccnc12)c1cc2cccc(Cl)c2c(=O)n1CCc1nnnn1C
45 | in the range around 5.5 µM | CNS(=O)(=O)CCn1c([C@H](C)NC(=O)c2c(N)nn3cccnc23)cc2cccc(Cl)c2c1=O
46 | in the range around 5.5 µM | C[C@H](NC(=O)c1c(N)nn2cccnc12)c1cc2cccc(Cl)c2c(=O)n1-c1ccccc1F
47 | in the range around 5.5 µM | C[C@H](NC(=O)c1c(N)nn2cccnc12)c1cc2cccc(Cl)c2c(=O)n1-c1cccc(O)c1
48 | in the range around 5.5 µM | Cc1ccc(-n2c([C@H](C)NC(=O)c3c(N)nn4cccnc34)cc3cccc(Cl)c3c2=O)cc1
49 | in the range around 5.5 µM | C[C@H](NC(=O)c1c(N)nn2cccnc12)c1cc2cccc(Cl)c2c(=O)n1-c1ccc(S(C)(=O)=O)cc1
50 | in the range around 0.75 µM | C[C@H](NC(=O)c1c(N)nn2cccnc12)c1cc2cccc(Cl)c2c(=O)n1CCS(=O)(=O)N(C)C
51 | in the range around 5.5 µM | Cc1ccccc1-n1c([C@H](C)NC(=O)c2c(N)nn3cccnc23)cc2cccc(Cl)c2c1=O
52 | in the range around 5.5 µM | C[C@H](NC(=O)c1c(N)nn2cccnc12)c1cc2cccc(Cl)c2c(=O)n1-c1cccc(S(C)(=O)=O)c1
53 | in the range around 0.75 µM | C[C@H](NC(=O)c1c(N)nn2cccnc12)c1cc2cccc(Cl)c2c(=O)n1CCCNS(C)(=O)=O
54 | in the range around 5.5 µM | C[C@H](NC(=O)c1c(N)nn2cccnc12)c1cc2cccc(Cl)c2c(=O)n1CCc1cnn[nH]1
55 | in the range around 5.5 µM | C[C@H](NC(=O)c1c(N)nn2cccnc12)c1cc2cccc(Cl)c2c(=O)n1Cc1nnn[nH]1
56 | in the range around 5.5 µM | C[C@H](NC(=O)c1c(N)nn2cccnc12)c1cc2cccc(Cl)c2c(=O)n1C1CCC1

Reference: ChEMBL document CHEMBL5726389, “Heterocyclic compounds and uses thereof” (2017)
